{"source": "ChEMBL document CHEMBL2074294", "about": "“Differential effects of microsomal enzyme-inducing chemicals on the hepatic expression of rat organic anion transporters, OATP1 and OATP2” (Hepatology, 2001)", "target": "T1, Solute carrier organic anion transporter family member 1A4 (Rattus norvegicus, UniProt O35913)", "T1 sequence (O35913 whole entry)": "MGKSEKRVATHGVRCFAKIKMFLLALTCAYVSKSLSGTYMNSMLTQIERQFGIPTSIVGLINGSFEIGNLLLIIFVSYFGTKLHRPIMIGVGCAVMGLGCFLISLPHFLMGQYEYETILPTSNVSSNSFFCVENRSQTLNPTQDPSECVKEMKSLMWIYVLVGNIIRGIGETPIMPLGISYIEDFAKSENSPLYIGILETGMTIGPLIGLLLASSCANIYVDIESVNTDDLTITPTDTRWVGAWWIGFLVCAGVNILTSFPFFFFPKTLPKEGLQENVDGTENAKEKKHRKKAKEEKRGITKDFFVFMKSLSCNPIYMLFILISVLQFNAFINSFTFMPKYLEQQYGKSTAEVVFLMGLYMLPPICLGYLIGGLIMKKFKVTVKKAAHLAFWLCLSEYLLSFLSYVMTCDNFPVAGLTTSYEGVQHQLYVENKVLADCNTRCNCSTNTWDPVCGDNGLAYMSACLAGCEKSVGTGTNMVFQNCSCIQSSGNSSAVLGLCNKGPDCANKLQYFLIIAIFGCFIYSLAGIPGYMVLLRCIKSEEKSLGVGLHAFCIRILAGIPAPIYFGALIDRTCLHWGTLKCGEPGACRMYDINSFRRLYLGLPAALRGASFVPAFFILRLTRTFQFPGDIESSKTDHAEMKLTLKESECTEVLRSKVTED", "assay": "TP_TRANSPORTER: Western blot", "type": "functional", "data": [{"smiles": "Cc1ccc2cc3c(ccc4ccccc43)c3c2c1CC3", "note": "[3-METHYLCHOLANTHRENE]", "values": [{"measurement": "Activity", "value": "inducer [Decrease]"}]}]}
